For 1 molecule, Ki results are on record in BindingDB's records for doi:10.1016/0960-894X(96)00183-7 (1996).

The assay has as its target alpha-L-fucosidase (Bos taurus). The assay is described as follows: Compound was tested for inhibition of alpha-fucosidase from bovine kidney.

In the case of `O[C@H]1[C@H](O)[C@H](O)CN(Cc2ccccc2)C[C@H]1O` [1-Benzyl-azepane-3,4,5,6-tetraol], the affinity, expressed as Ki, was 23.4 µM.
